Assay [1] addresses T1, M1 muscarinic receptors expressed in A9 L cells (Homo sapiens, UniProt P11229).
T1 sequence (P11229 1-460): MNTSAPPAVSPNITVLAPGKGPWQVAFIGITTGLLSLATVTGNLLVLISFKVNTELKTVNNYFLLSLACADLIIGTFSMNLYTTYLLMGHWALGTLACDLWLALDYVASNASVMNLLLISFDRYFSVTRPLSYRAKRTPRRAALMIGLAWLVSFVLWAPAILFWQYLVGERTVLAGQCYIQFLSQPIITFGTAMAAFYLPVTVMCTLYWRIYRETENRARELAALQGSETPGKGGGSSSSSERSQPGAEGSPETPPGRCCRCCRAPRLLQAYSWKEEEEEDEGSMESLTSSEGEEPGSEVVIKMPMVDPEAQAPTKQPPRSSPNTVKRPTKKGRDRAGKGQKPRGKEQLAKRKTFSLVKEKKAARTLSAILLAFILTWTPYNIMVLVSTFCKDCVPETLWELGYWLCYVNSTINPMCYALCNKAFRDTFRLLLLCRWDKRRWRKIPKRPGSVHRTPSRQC
To be noted: mean ± s.e.m.; for PI metabolism Smax: maximal stimulation from full dose-response curves; for PI metabolism (at 100 μM): percentage stimulation above basal levels at 100 μM relative to the carbachol response (100%), two to five assays; for EC50: read-out: PI metabolism EC50, full dose-response curves.
Source text: Full dose-response curves were obtained for a few compounds.

Another assay concerns the target T2, M1 muscarinic receptors (Homo sapiens, UniProt P11229).
T2 sequence (P11229 1-460): T1 sequence (P11229 1-460)
To be noted: read-out: M1 Receptors Ki; M1 receptors expressed in A9 L cells.

The target of a further assay is T3, M2 receptors (Homo sapiens, UniProt P08172).
T3 construct: expressed in transfected cells; host or cells: A9 L cells
T3 sequence (P08172 1-466): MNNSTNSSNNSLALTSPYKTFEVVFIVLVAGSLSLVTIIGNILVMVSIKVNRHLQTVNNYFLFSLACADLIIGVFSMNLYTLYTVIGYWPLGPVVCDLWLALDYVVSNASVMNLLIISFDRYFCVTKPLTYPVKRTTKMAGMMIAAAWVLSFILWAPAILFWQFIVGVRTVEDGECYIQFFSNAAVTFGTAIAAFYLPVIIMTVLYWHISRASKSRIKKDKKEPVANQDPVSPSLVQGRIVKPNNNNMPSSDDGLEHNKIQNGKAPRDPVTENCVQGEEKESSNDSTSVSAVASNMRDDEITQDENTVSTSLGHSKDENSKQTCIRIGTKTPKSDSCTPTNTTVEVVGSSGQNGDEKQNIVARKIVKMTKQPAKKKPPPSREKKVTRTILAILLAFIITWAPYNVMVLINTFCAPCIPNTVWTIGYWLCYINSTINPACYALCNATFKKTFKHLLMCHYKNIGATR
The assay can be described thus: Receptor binding at M2 receptors expressed in A9 L cells (high and low affinity sites). The note with it: share of high affinity sites.

By EC50 is commonly meant the midpoint of the concentration-response curve. The Ki is a measure of affinity in units of concentration, obtained from inhibition or displacement.

Take `CN1CCC=C(c2nsnc2OCCCCCCCCCCCCOc2nsnc2C2=CCCN(C)C2)C1` [(CH2)12, 1, 12-bis-[3-(1-methyl-1,2,5,6-tetrahydropyrid-3-yl)-1,2,5-thiadiazol-4-yloxy]-dodecane]: in assay [1], the “PI metabolism Smax” value turned out to be 190 ± 61%, the “PI metabolism (at 100 μM)” value was 84 ± 9.9% and the EC50 is 340 ± 190 nM.

On to `CN1CCC=C(c2nsnc2OCCCCCCOc2nsnc2C2=CCCN(C)C2)C1` [(CH2)6], for which the Ki on M1 muscarinic receptors was found to be 0.61 ± 0.18 nM. For the same compound, the “PI metabolism (at 100 μM)” value in assay [1] is listed as 18 ± 0.06%.

Turning to `CN1CCC=C(c2nsnc2OCCCCCCCCCCOc2nsnc2C2=CCCN(C)C2)C1` [(CH2)10], the “PI metabolism (at 100 μM)” value in assay [1] stood at 76 ± 11%.

In the case of `CN1CCC=C(c2nsnc2OCCCCCCCCOc2nsnc2C2=CCCN(C)C2)C1` [(CH2)8], on M1 muscarinic receptors, the Ki was determined as 0.19 ± 0.04 nM. Moreover, the “PI metabolism (at 100 μM)” value in assay [1] is 8.2 ± 1.4%.

`CN1CCC=C(c2nsnc2OCCOCCOCCOCCOc2nsnc2C2=CCCN(C)C2)C1` [(CH2)4O3, 2, 2′-bis-{[3-(1-methyl-1,2,5,6-tetrahydropyrid-3-yl)-1,2,5-thiadiazol-4-yloxy]ethyloxy}-diethylether]: at M1 muscarinic receptors, the Ki came to 0.12 ± 0.057 nM. In addition, in assay [1], the “PI metabolism Smax” value turned out to be 250 ± 36% and the EC50 came to 8.5 ± 1.2 nM.

Regarding `CN1CCC=C(c2nsnc2OCCCCCCCCCOc2nsnc2C2=CCCN(C)C2)C1` [(CH2)9], in assay [1], the “PI metabolism Smax” value is on record as 140 ± 34%, the “PI metabolism (at 100 μM)” value turned out to be 27 ± 6.2% and the EC50 is 720 ± 370 nM.

For `CCCCCCOc1nsnc1C1=CCCN(C)C1` [Xanomeline], the “M2 Receptors % High affinity” value on M2 receptors turned out to be 26 ± 8.5%.

(Values after patent US6369081B1, “Muscarinic receptor agonists” (The University of Toledo, priority 1999, dated 2002).)
